Legend:
[1] = tested on: wheat; test: Test B pre/postemergence wheat; type: in vivo, Triticum aestivum; conditions: for Plant response rating, Wheat: scale of 0 to 10 where 0 is no effect and 10 is complete control
Summary of the method: (§1)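 Test chemicals in a non-phytotoxic solvent mixture with surfactant were sprayed preemergence onto planted seeds and postemergence onto plants 2 to 18 cm tall (1- to 4-leaf stage). After twelve to sixteen days in a greenhouse, injury was visually rated against untreated controls from 0 (no effect) to 10 (complete control).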

[2] = tested on: pigweed; test: Test B pre/postemergence pigweed; type: in vivo, Amaranthus retroflexus; conditions: for Plant response rating, Redroot pigweed: scale of 0 to 10 where 0 is no effect and 10 is complete control
Summary of the method: as §1

[3] = tested on: wild oat; test: Test B pre/postemergence wild oat; type: in vivo, Avena fatua; conditions: for Plant response rating, Wild oats: scale of 0 to 10 where 0 is no effect and 10 is complete control
Summary of the method: as §1

[4] = tested on: smallflower flatsedge; test: Test B flood test smallflower flatsedge; type: in vivo, Cyperus difformis
Summary of the method: (§2)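 Flood test on plants grown to the 2-leaf stage; treated plants kept in greenhouse twelve to sixteen days, then visually rated against controls on a 0 (no effect) to 10 (complete control) scale.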

[5] = tested on: surinam grass; test: Test B pre/postemergence surinam grass; type: in vivo, Brachiaria decumbens
Summary of the method: as §1

[6] = tested on: morningglory; test: Test B pre/postemergence morningglory; type: in vivo, Ipomoea hederacea; conditions: for Plant response rating, Morningglory: scale of 0 to 10 where 0 is no effect and 10 is complete control
Summary of the method: as §1

[7] = tested on: purple nutsedge; test: Test B pre/postemergence purple nutsedge; type: in vivo, Cyperus rotundus; conditions: for Plant response rating, Nutsedge: scale of 0 to 10 where 0 is no effect and 10 is complete control
Summary of the method: as §1

[8] = tested on: cocklebur; test: Test B pre/postemergence cocklebur; type: in vivo, Xanthium strumarium
Summary of the method: as §1

[9] = tested on: rape; test: Test B pre/postemergence rape; type: in vivo, Brassica napus; conditions: for Plant response rating, Rape: scale of 0 to 10 where 0 is no effect and 10 is complete control
Summary of the method: as §1

[10] = tested on: rice; test: Test B flood test rice; type: in vivo, Oryza sativa
Summary of the method: as §2

[11] = tested on: giant foxtail; test: Test B pre/postemergence giant foxtail; type: in vivo, Setaria faberii
Summary of the method: as §1

[12] = tested on: sugar beet; test: Test B pre/postemergence sugar beet; type: in vivo, Beta vulgaris; conditions: for Plant response rating, Sugarbeets: scale of 0 to 10 where 0 is no effect and 10 is complete control
Summary of the method: as §1

[13] = tested on: blackgrass; test: Test B pre/postemergence blackgrass; type: in vivo, Alopecurus myosuroides
Summary of the method: as §1

[14] = tested on: velvetleaf; test: Test B pre/postemergence velvetleaf; type: in vivo, Abutilon theophrasti; conditions: for Plant response rating, Velvetleaf: scale of 0 to 10 where 0 is no effect and 10 is complete control
Summary of the method: as §1

[15] = tested on: crabgrass; test: Test B pre/postemergence crabgrass; type: in vivo, Digitaria sanguinalis
Summary of the method: as §1

[16] = tested on: bamyardgrass; test: Test B flood test barnyardgrass; type: in vivo, Echinochloa crus-galli
Summary of the method: as §2

[17] = Postemergence, Rate 250 g/ha, scale 0 to 10
[18] = Preemergence, Rate 250 g/ha, scale 0 to 10, 0 is no effect, 10 is complete control
[19] = Preemergence, Rate 500 g/ha, scale 0 to 10, 0 is no effect, 10 is complete control
[20] = Rate 62 g/ha, Postemergence, scale 0 to 10 (0 no effect, 10 complete control)
[21] = Rate 125 g/ha, Postemergence, scale 0 to 10, 0 is no effect, 10 is complete control
[22] = Rate 62 g/ha, flood test species, Pre-emergence, visual evaluation after twelve to sixteen days
[23] = Rate 125 g/ha, under heading Pre-emergence, flood test species, visual evaluation after twelve to sixteen days
[24] = Rate 250 g/ha, Pre-emergence (flood test species), scale 0 to 10, 0 is no effect, 10 is complete control
[25] = Rate 500 g/ha, Pre-emergence, flood test species, scale 0 to 10 (0 no effect, 10 complete control)
[26] = Postemergence, Rate 500 g/ha, scale of 0 to 10 where 0 is no effect and 10 is complete control
[27] = Preemergence, Rate 62 g/ha, scale of 0 to 10 where 0 is no effect and 10 is complete control
[28] = Preemergence, Rate 125 g/ha, scale of 0 to 10 where 0 is no effect and 10 is complete control

## CC(C)N(C(=O)n1oc(=O)n(CCS(C)(=O)=O)c1=O)c1ccc(F)cc1 [Compound 453]
[1]; [17]
  Wheat plant response rating: 0
[1]; Preemergence, Rate 62 g/ha
  Plant response rating, Wheat: 0
[1]; Preemergence, Rate 125 g/ha
  Plant response rating, Wheat: 0
[1]; [18]
  Wheat plant response rating: 3
[1]; [19]
  Wheat plant response rating: 6
[1]; [20]
  Wheat plant response rating: 0
[1]; [21]
  Wheat plant response rating: 0
[2]; [17]
  Redroot pigweed plant response rating: 0
[2]; Preemergence, Rate 62 g/ha
  Plant response rating, Redroot pigweed: 0
[2]; Preemergence, Rate 125 g/ha
  Plant response rating, Redroot pigweed: 4
[2]; [18]
  Redroot pigweed plant response rating: 6
[2]; [19]
  Redroot pigweed plant response rating: 10
[2]; [20]
  Redroot pigweed plant response rating: 0
[2]; [21]
  Redroot pigweed plant response rating: 0
[3]; [17]
  Wild oats plant response rating: 0
[3]; Preemergence, Rate 62 g/ha
  Plant response rating, Wild oats: 0
[3]; Preemergence, Rate 125 g/ha
  Plant response rating, Wild oats: 0
[3]; [18]
  Wild oats plant response rating: 2
[3]; [19]
  Wild oats plant response rating: 8
[3]; [20]
  Wild oats plant response rating: 0
[3]; [21]
  Wild oats plant response rating: 0
[4]; [22]
  Plant response rating, S. Flatsedge (0 to 10 scale, 0 is no effect, 10 is complete control): 0
[4]; [23]
  S. Flatsedge plant response rating (0 to 10 scale, 0 is no effect, 10 is complete control): 0
[4]; [24]
  S. Flatsedge plant response rating: 0
[4]; [25]
  S. Flatsedge plant response rating: 0
[5]; Postemergence, Rate 250 g/ha, scale 0 to 10, 0 no effect, 10 complete control
  B. signalgrass plant response rating: 2
[5]; [26]
  B. signalgrass plant response rating: 5
[5]; [27]
  Plant response rating, B. signalgrass: 0
[5]; [28]
  Plant response rating, B. signalgrass: 2
[5]; [18]
  B. signalgrass plant response rating: 6
[5]; [19]
  B. signalgrass plant response rating: 6
[5]; [20]
  B. signalgrass plant response rating: 0
[5]; [21]
  B. signalgrass plant response rating: 0
[6]; [17]
  Morningglory plant response rating: 2
[6]; Preemergence, Rate 62 g/ha
  Plant response rating, Morningglory: 0
[6]; Preemergence, Rate 125 g/ha
  Plant response rating, Morningglory: 0
[6]; [18]
  Morningglory plant response rating: 0
[6]; [19]
  Morningglory plant response rating: 3
[6]; [20]
  Morningglory plant response rating: 0
[6]; [21]
  Morningglory plant response rating: 0
[7]; [17]
  Nutsedge plant response rating: 0
[7]; Preemergence, Rate 62 g/ha
  Plant response rating, Nutsedge: 0
[7]; Preemergence, Rate 125 g/ha
  Plant response rating, Nutsedge: 0
[7]; [18]
  Nutsedge plant response rating: 0
[7]; [20]
  Nutsedge plant response rating: 0
[7]; [21]
  Nutsedge plant response rating: 0
[8]; [17]
  Cocklebur plant response rating: 0
[8]; [26]
  Cocklebur plant response rating: 0
[8]; [27]
  Plant response rating, Cocklebur: 0
[8]; [28]
  Plant response rating, Cocklebur: 0
[8]; [18]
  Cocklebur plant response rating: 0
[8]; [19]
  Cocklebur plant response rating: 0
[8]; [20]
  Cocklebur plant response rating: 0
[8]; [21]
  Cocklebur plant response rating: 0
[9]; [17]
  Rape plant response rating: 0
[9]; Preemergence, Rate 62 g/ha
  Plant response rating, Rape: 0
[9]; Preemergence, Rate 125 g/ha
  Plant response rating, Rape: 0
[9]; [18]
  Rape plant response rating: 0
[9]; [19]
  Rape plant response rating: 3
[9]; [20]
  Rape plant response rating: 0
[9]; [21]
  Rape plant response rating: 0
[10]; [22]
  Plant response rating, Rice (0 to 10 scale, 0 is no effect, 10 is complete control): 0
[10]; [23]
  Rice plant response rating (0 to 10 scale, 0 is no effect, 10 is complete control): 0
[10]; [24]
  Rice plant response rating: 0
[10]; [25]
  Rice plant response rating: 0
[11]; [17]
  Giant foxtail plant response rating: 7
[11]; [26]
  Giant foxtail plant response rating: 9
[11]; [27]
  Plant response rating, Giant foxtail: 7
[11]; [28]
  Plant response rating, Giant foxtail: 9
[11]; [18]
  Giant foxtail plant response rating: 10
[11]; [19]
  Giant foxtail plant response rating: 10
[11]; [20]
  Giant foxtail plant response rating: 3
[11]; [21]
  Giant foxtail plant response rating: 5
[12]; [17]
  Sugarbeets plant response rating: 0
[12]; Preemergence, Rate 62 g/ha
  Plant response rating, Sugarbeets: 0
[12]; Preemergence, Rate 125 g/ha
  Plant response rating, Sugarbeets: 0
[12]; [18]
  Sugarbeets plant response rating: 2
[12]; [19]
  Sugarbeets plant response rating: 5
[12]; [20]
  Sugarbeets plant response rating: 0
[12]; [21]
  Sugarbeets plant response rating: 0
[13]; [17]
  Blackgrass plant response rating: 6
[13]; [26]
  Blackgrass plant response rating: 6
[13]; [27]
  Plant response rating, Blackgrass: 0
[13]; [28]
  Plant response rating, Blackgrass: 0
[13]; [18]
  Blackgrass plant response rating: 3
[13]; [19]
  Blackgrass plant response rating: 5
[13]; [20]
  Blackgrass plant response rating: 0
[13]; [21]
  Blackgrass plant response rating: 0
[14]; [17]
  Velvetleaf plant response rating: 0
[14]; Preemergence, Rate 62 g/ha
  Plant response rating, Velvetleaf: 0
[14]; Preemergence, Rate 125 g/ha
  Plant response rating, Velvetleaf: 0
[14]; [18]
  Velvetleaf plant response rating: 2
[14]; [19]
  Velvetleaf plant response rating: 6
[14]; [20]
  Velvetleaf plant response rating: 0
[14]; [21]
  Velvetleaf plant response rating: 0
[15]; [17]
  Crabgrass plant response rating: 4
[15]; [26]
  Crabgrass plant response rating: 10
[15]; [27]
  Plant response rating, Crabgrass: 5
[15]; [28]
  Plant response rating, Crabgrass: 6
[15]; [18]
  Crabgrass plant response rating: 6
[15]; [19]
  Crabgrass plant response rating: 7
[15]; [20]
  Crabgrass plant response rating: 0
[16]; [22]
  Plant response rating, Barnyardgrass (0 to 10 scale, 0 is no effect, 10 is complete control): 0
[16]; [23]
  Barnyardgrass plant response rating (0 to 10 scale, 0 is no effect, 10 is complete control): 0
[16]; [24]
  Barnyardgrass plant response rating: 0
[16]; [25]
  Barnyardgrass plant response rating: 0

Reference: patent US6737383B1, “Herbicidal oxadiazolidines” (priority 1999, dated 2004)
